Laboratory results from patent US20100267561A1, “HERBICIDAL PYRIDAZINONE DERIVATIVES” (priority 2007, published 2010).

Tests used:
Assay in all cases: Test B pre-/postemergence plant response
Type in all cases: in vivo
[1] = system: pigweed (Amaranthus retroflexus)
How it was run: (§1)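 Visual scoring from 0 (no effect) to 100 (complete control) against untreated controls was done 13 to 15 days after greenhouse treatment. Chemicals were formulated in a surfactant-containing non-phytotoxic solvent and applied to soil preemergence or to 1- to 4-leaf (2-18 cm) plants postemergence.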

[2] = system: green foxtail (Setaria viridis)
How it was run: as §1

corn (Zea mays) = system: corn (Zea mays)
How it was run: as §1

[3] = system: woolly cupgrass (Eriochloa villosa)
How it was run: as §1

[4] = system: eastern black (E.B.) nightshade (Solanum ptycanthum); details: Preemergence; for Nightshade, E. B. plant response rating: scale 0 to 100
How it was run: as §1

[5] = system: morningglory (Ipomoea coccinea)
How it was run: as §1

[6] = system: downy bromegrass (Bromus tectorum); details: for Bromegrass, Downy plant response rating: 8 g ai/ha
How it was run: as §1

[7] = system: surinam grass (Brachiaria decumbens)
How it was run: as §1

[8] = system: Russian thistle (Salsola iberica); details: Preemergence; for Russian Thistle plant response rating: scale 0 to 100
How it was run: as §1

[9] = system: velvetleaf (Abutilon theophrasti)
How it was run: as §1

[10] = system: Italian ryegrass (Lolium multiflorum)
How it was run: as §1

kochia (Kochia scoparia) = details: for Kochia plant response rating: postemergence, 0-100 scale; for Plant response rating, Kochia: Postemergence
How it was run: as §1

soybean (Glycine max) = details: for Soybean plant response rating: postemergence, 0-100 scale; for Plant response rating, Soybean: Postemergence
How it was run: as §1

[11] = system: bermudagrass (Cynodon dactylon); details: for Bermudagrass plant response rating: 8 g ai/ha
How it was run: as §1

[12] = 8 g ai/ha, postemergence, 0-100 scale
[13] = 16 g ai/ha, postemergence, 0-100 scale
[14] = Postemergence, 31 g ai/ha, scale 0 to 100
[15] = Postemergence, 62 g ai/ha, scale 0 to 100, 0 no effect, 100 complete control
[16] = Preemergence, 31 g ai/ha, scale 0 to 100 (0 no effect, 100 complete control)
[17] = Preemergence, 62 g ai/ha, 0 to 100 scale, 0 no effect, 100 complete control
[18] = Preemergence, 8 g ai/ha, scale 0 to 100
[19] = Preemergence, 16 g ai/ha, scale 0 to 100
[20] = Postemergence, 16 g ai/ha, scale 0 to 100
[21] = 31 g ai/ha, scale 0 to 100 (0 no effect, 100 complete control)
[22] = 62 g ai/ha, 0 to 100 scale, 0 no effect, 100 complete control
[23] = Preemergence, 16 g ai/ha, scale 0 to 100 (0 no effect, 100 complete control)
[24] = 62 g ai/ha, scale 0 to 100, 0 no effect, 100 complete control

Cc1cc(-c2ccc(Cl)cc2)nn1-c1c(OC(=S)N(C)C)cnn(C)c1=O [Compound 69]
Pigweed plant response rating [1, 12]: 0 | Pigweed plant response rating [1, 13]: 0 | Plant response rating, Pigweed [1, 14]: 0 | Plant response rating, Pigweed [1, 15]: 0 | Plant response rating, Pigweed [1, 16]: 0 | Plant response rating, Pigweed [1, 17]: 0 | Pigweed plant response rating [1, 18]: 0 | Pigweed plant response rating [1, 19]: 0 | Foxtail, Green plant response rating [2, 12]: 60 | Plant response rating, Foxtail, Green [2, 20]: 80 | Plant response rating, Foxtail, Green [2, 14]: 90 | Plant response rating, Foxtail, Green [2, 15]: 95 | Plant response rating, Foxtail, Green [2, 16]: 40 | Plant response rating, Foxtail, Green [2, 17]: 100 | Foxtail, Green plant response rating [2, 18]: 0 | Foxtail, Green plant response rating [2, 19]: 0 | Corn plant response rating (corn (Zea mays); [12]): 0 | Plant response rating, Corn (corn (Zea mays); [20]): 0 | Plant response rating, Corn (corn (Zea mays); [14]): 0 | Plant response rating, Corn (corn (Zea mays); [15]): 20 | Plant response rating, Corn (corn (Zea mays); [16]): 0 | Plant response rating, Corn (corn (Zea mays); [17]): 0 | Corn plant response rating (corn (Zea mays); [18]): 0 | Corn plant response rating (corn (Zea mays); [19]): 0 | Cupgrass, Woolly plant response rating [3, 12]: 20 | Plant response rating, Cupgrass, Woolly [3, 20]: 90 | Plant response rating, Cupgrass, Woolly [3, 14]: 95 | Plant response rating, Cupgrass, Woolly [3, 15]: 100 | Plant response rating, Cupgrass, Woolly [3, 16]: 0 | Plant response rating, Cupgrass, Woolly [3, 17]: 85 | Cupgrass, Woolly plant response rating [3, 18]: 0 | Cupgrass, Woolly plant response rating [3, 19]: 0 | Plant response rating, Nightshade, E. B. [4, 21]: 0 | Plant response rating, Nightshade, E. B. [4, 22]: 0 | Nightshade, E. B. plant response rating ([4]; 8 g ai/ha): 0 | Nightshade, E. B. plant response rating ([4]; 16 g ai/ha): 0 | Morningglory plant response rating [5, 12]: 0 | Morningglory plant response rating [5, 13]: 0 | Plant response rating, Morningglory [5, 14]: 0 | Plant response rating, Morningglory [5, 15]: 0 | Plant response rating, Morningglory [5, 16]: 0 | Plant response rating, Morningglory [5, 17]: 0 | Morningglory plant response rating [5, 18]: 0 | Morningglory plant response rating [5, 19]: 0 | Bromegrass, Downy plant response rating ([6]; postemergence, 0-100 scale): 0 | Plant response rating, Bromegrass, Downy [6, 20]: 0 | Plant response rating, Bromegrass, Downy [6, 14]: 15 | Plant response rating, Bromegrass, Downy [6, 15]: 45 | Plant response rating, Bromegrass, Downy [6, 23]: 0 | Plant response rating, Bromegrass, Downy [6, 16]: 0 | Plant response rating, Bromegrass, Downy [6, 17]: 0 | Bromegrass, Downy plant response rating ([6]; Preemergence, scale 0 to 100): 0 | Surinam Grass plant response rating [7, 12]: 65 | Surinam Grass plant response rating [7, 13]: 75 | Plant response rating, Surinam Grass [7, 14]: 80 | Plant response rating, Surinam Grass [7, 15]: 95 | Plant response rating, Surinam Grass [7, 16]: 15 | Plant response rating, Surinam Grass [7, 17]: 35 | Surinam Grass plant response rating [7, 18]: 0 | Surinam Grass plant response rating [7, 19]: 0 | Plant response rating, Russian Thistle [8, 21]: 0 | Plant response rating, Russian Thistle [8, 22]: 0 | Russian Thistle plant response rating ([8]; 8 g ai/ha): 0 | Russian Thistle plant response rating ([8]; 16 g ai/ha): 0 | Velvetleaf plant response rating [9, 12]: 0 | Velvetleaf plant response rating [9, 13]: 0 | Plant response rating, Velvetleaf [9, 14]: 0 | Plant response rating, Velvetleaf [9, 15]: 0 | Plant response rating, Velvetleaf [9, 16]: 0 | Plant response rating, Velvetleaf [9, 17]: 0 | Velvetleaf plant response rating [9, 18]: 0 | Velvetleaf plant response rating [9, 19]: 0 | Ryegrass, Italian plant response rating [10, 12]: 10 | Ryegrass, Italian plant response rating [10, 13]: 55 | Plant response rating, Ryegrass, Italian [10, 14]: 98 | Plant response rating, Ryegrass, Italian [10, 15]: 100 | Plant response rating, Ryegrass, Italian [10, 16]: 60 | Plant response rating, Ryegrass, Italian [10, 17]: 100 | Ryegrass, Italian plant response rating [10, 18]: 0 | Ryegrass, Italian plant response rating [10, 19]: 20 | Kochia plant response rating (kochia (Kochia scoparia); 8 g ai/ha): 0 | Kochia plant response rating (kochia (Kochia scoparia); 16 g ai/ha): 0 | Plant response rating, Kochia (kochia (Kochia scoparia); 31 g ai/ha, scale 0 to 100): 95 | Plant response rating, Kochia (kochia (Kochia scoparia); [24]): 98 | Soybean plant response rating (soybean (Glycine max); 8 g ai/ha): 0 | Soybean plant response rating (soybean (Glycine max); 16 g ai/ha): 0 | Plant response rating, Soybean (soybean (Glycine max); 31 g ai/ha, scale 0 to 100): 0 | Plant response rating, Soybean (soybean (Glycine max); [24]): 20 | Bermudagrass plant response rating ([11]; postemergence, 0-100 scale): 20 | Plant response rating, Bermudagrass [11, 20]: 65 | Plant response rating, Bermudagrass [11, 14]: 95 | Plant response rating, Bermudagrass [11, 15]: 98 | Bermudagrass plant response rating ([11]; Preemergence, scale 0 to 100 (0 no effect, 100 complete control)): 0 | Plant response rating, Bermudagrass [11, 23]: 0 | Plant response rating, Bermudagrass [11, 16]: 0 | Plant response rating, Bermudagrass [11, 17]: 0
